According to paper PMC3255464 (2011):

Biological target: galectin-3 carbohydrate recognition domain (Gal3C) (Homo sapiens, UniProt P17931)
Assay: X-ray crystal structure at […] Å
Assay type: binding

Chain of galectin-3 carbohydrate recognition domain (Gal3C) (P17931 113-250): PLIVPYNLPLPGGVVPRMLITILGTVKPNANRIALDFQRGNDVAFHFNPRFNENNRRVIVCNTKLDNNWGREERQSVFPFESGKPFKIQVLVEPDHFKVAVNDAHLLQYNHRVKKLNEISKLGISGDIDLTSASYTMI

Kd: > 100 mM
SMILES: OCC(O)CO [glycerol]
